| SMILES | melting point [°C] |
| --- | --- |
| Cc1ccc(NC(=O)c2cccc(N(C)C)c2)cc1Nc1ncc(-c2cccnc2)o1 [Compound 010, 3-Dimethylamino-N-[4-methyl-3-(5-pyridin-3-yl-oxazol-2-ylamino)-phenyl]-benzamide] | 228 |
| Cc1ccc(C(=O)Nc2ccc(C#N)cc2)cc1Nc1ncc(-c2cccnc2)o1 [Compound 058, N-(4-Cyano-phenyl)-4-methyl-3-(5-pyridin-3-yl-oxazol-2-ylamino)-benzamide] | 203 |

From US7718676B2, “2-aminoaryloxazole compounds as tyrosine kinase inhibitors” (AB Science, priority 2003, dated 2010)
